Results published in publication PMC12113707, “Microwave Assisted Synthesis of Antioxidant Dihydro-Pyrazole Hybrids as Possible Lipoxygenase Inhibitors” (Molecules, 2025).

What was measured:
[1] = Inhibition of AAPH-induced linoleic acid peroxidation; details: 37 °C, 234 nm
Experimental: The ability of the compounds to inhibit AAPH-induced peroxidation of linoleic acid is another assay to investigate the antioxidant properties of the compounds. Azo compounds such as 2,2′-azobis dihydrochloride (2-amidinopropane) (AAPH) are capable of generating free radicals through spontaneous decomposition at 37 °C. The R- radicals react immediately with air-oxygen to produce peroxy radicals. AAPH was therefore used as the radical initiator and sodium linoleate as substrate subjected to peroxidation. Measurements were carried out at 234 nm using a UV/V is spectrophotometer. Dichalcone 1i substituted with two phenyl groups presents the lowest lipophilicity. […] Therefore, hydrophilic substituents offer an increase in activity.
The interaction of free radicals with cell membrane lipids induces free radical chain reactions, a process called lipid peroxidation. 930 μL of a phosphate buffer solution (0.05 M, pH = 7.4), 10 μL of the sodium linolate solution (16 mM in a buffer solution of Tris-HCl pH = 9) and 10 μL of the tested compounds (stock solutions 100 μΜ) were mixed and the oxidative procedure started after the addition of 50 μL AAPH at 37 °C under air conditions. The conjugated diene’s absorbance was measured at 234 nm at a thermostable spectrophotometer (37 °C) according to previous publication.

[2] = Interaction with the stable free radical DPPH (reducing activity); details: 517 nm
Experimental: In general, the compounds present moderate to good antioxidant activity. It seems that the dibenzylacetones present satisfactory antioxidant activity compared to the hybrids at 60 min (1b, 1d and 1f).
The tested compounds (0.1 mM final concentration) dissolved in DMSO were incubated with a solution of DPPH in absolute ethanol in absence of light. The absorbance at 20 and 60 min at 517 nm was recorded at room temperature. NDGA was used as the reference compound.

[3] = molecular target: T1, soybean lipoxygenase (SLOX-1) (Glycine max, UniProt P08170); assay: Inhibition of soybean lipoxygenase in vitro; format: biochemical; details: pH 9, sodium linoleate substrate; for inhibition at 100 µM: read-out: LOX% Inhibition, 100 μM (±SD)
T1 construct: 200 μL of plant-derived lipoxygenase solution (1:9 × 10^−4 w/v, in saline); purchased Sigma Chemical, Co; host or cells: soybean (plant-derived)
T1 sequence (P08170 1-839): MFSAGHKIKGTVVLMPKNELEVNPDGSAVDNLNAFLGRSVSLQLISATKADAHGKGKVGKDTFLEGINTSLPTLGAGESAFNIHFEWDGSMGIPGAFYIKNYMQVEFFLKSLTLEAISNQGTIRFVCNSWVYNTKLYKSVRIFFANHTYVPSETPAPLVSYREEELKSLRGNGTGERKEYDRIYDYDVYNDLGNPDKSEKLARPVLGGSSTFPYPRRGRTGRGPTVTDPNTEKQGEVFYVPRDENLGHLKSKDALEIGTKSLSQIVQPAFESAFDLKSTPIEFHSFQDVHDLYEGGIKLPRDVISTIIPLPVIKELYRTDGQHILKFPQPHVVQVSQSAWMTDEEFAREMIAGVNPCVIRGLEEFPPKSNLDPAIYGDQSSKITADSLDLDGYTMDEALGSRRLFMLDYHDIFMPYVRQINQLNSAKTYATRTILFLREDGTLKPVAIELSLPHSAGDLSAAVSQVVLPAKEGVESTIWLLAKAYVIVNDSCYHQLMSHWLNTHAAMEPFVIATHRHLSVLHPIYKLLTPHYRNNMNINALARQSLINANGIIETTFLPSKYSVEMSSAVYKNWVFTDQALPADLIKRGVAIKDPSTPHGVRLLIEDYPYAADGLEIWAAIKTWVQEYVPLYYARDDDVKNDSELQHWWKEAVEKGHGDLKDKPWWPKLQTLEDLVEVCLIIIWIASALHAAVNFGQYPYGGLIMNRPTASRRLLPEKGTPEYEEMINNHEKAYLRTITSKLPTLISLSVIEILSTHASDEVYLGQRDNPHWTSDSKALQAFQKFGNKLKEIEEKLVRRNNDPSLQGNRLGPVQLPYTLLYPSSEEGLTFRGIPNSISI
Experimental: Soybean lipoxygenase SLOX-1 at pH 9 is used in vitro. During this assay linoleic acid sodium salt is converted to the corresponding 13-hydroperoxide. The reaction is recorded photometrically at 234 nm using the UV-based enzyme assay. […] It is known that soybean LOX inhibitory activity induced by NSAIDs is qualitatively quite similar to the inhibition observed on the rat mast cells LOX and this assay may be used as a qualitative or semi-quantitative screen for such activity.
To a quartz cell, add 790 μL of Tris-HCl pH = 9.0 buffer, 200 μL of plant-derived lipoxygenase solution (1:9 × 10^−4 w/v, in saline), 10 μL of the test compound solution and 100 μL of sodium linoleate solution (3 mM concentration). The absorbance was measured at 234 nm, where the change in absorbance due to the conversion of linoleic acid to […] was recorded. A solution of 790 μL of Tris-HCl pH = 9.0 buffer, 200 μL of a plant-derived lipoxygenase solution (1:9 × 10^−4 w/v, in saline), 10 μL of DMSO and 100 μL of sodium linoleate solution (3 mM concentration) was used as a control.

[4] = Experimental lipophilicity RM by reverse phase thin layer chromatography (RP-TLC); format: physicochemical; details: methanol-water mobile phase
Experimental: Lipophilicity is a main physicochemical parameter for bioactive molecules, linking solubility, ligand-target binding interactions, membrane permeability absorption, distribution, bioavailability, metabolism, elimination and toxicological effects (ADMET), playing an important role in biological activity. The experimental values of lipophilicity RM were determined by reverse phase thin layer chromatography. For the experimental determination of lipophilicity the hydrophilic-lipid phase system is a mixture of methanol- water (90/10%). The theoretical lipophilicity values are determined by the Bioloom program (http://biobyte.com/bb/prod/bioloom.html, accessed on 8 April 2024) (Table 1). According to the calculated clog P values, the most lipophilic compounds are 3c, 3d and 3f while the less lipophilic ones are compounds 5a and 5b.
Melting points were determined on a MEL-Temp II (Lab. Devices, Holliston, MA, USA). In vitro tests were carried out using a UV-Vis spectra and recorded on a Perkin-Elmer 554 double-beam spectrophotometer (Perkin-Elmer Corporation Ltd., Lane Beaconsfield, Bucks, UK). Infrared spectra (KBr pellets) were recorded with Perkin-Elmer 597 spectrophotometer (Perkin-Elmer Corporation Ltd., Lane Beaconsfield, Bucks, UK). The ^1H […] Magnetic Resonance (^1H-NMR) spectra were acquired on an Agilent 500/54 (DD2) at 500 MHz in CDCl3 using tetramethylsilane as an internal standard. Agilent 500/54 (DD2) ^13C NMR spectra were acquired at 125 MHz in CDCl3 solutions with tetramethylsilane serving as an internal reference. Coupling constants J are expressed in Hz, and chemical shifts are reported in ppm. Thermo Fisher Scientific Inc., Waltham, MA, USA, used MeOH as the solvent to calculate mass spectra using an LC-PDA-MS Thermo Finnigan system (LC Pump Plus, Autosampler, Surveyor PDA Plus Detector) interfaced with an ESI MSQ Plus (Thermo Finnigan). Thin-layer chromatography using 5554 F254 Silica gel/TLC cards (Merck and Fluka Chemie GmbH Buchs, Steinheim, Switzerland) was used to monitor the reaction progress. Silica gel 60 F254 plates with a diameter of 2 mm were utilized for preparative thin layer chromatography (prep TLC) by Merck KgaA (ICH078057). Merck (20 × 20 cm) plates were used for the experimental assessment of the lipophilicity using reverse phase thin-layer chromatography (RP-TLC) TLC-Silica gel 60 F254 DC Kieselgel.
In this experiment, TLC silica gel 60 F254 1.05715.0001 commercial glass plates from Merck were used. The plates were first immersed in a 5% v/v solution of liquid paraffin in petroleum ether and left for 90 s to become completely impregnated with the stable lipophilic phase. They were then activated by standing for 30 min in an oven at 40 °C and kept there until the time of use. A 70% v/v MeOH/H2O mixture was used as the mobile phase. The mobile phase was saturated with a few drops of liquid paraffin before being used. The spots of the compounds were placed on the plate at a distance of 2 cm from the edges of the plate and also from each other. The development of the spots on the plates was carried out in closed chromatography chambers where the atmosphere is saturated with the mobile phase at room temperature. At the end of development, the solvent-formed front was marked and the plates are dried at 80 °C for about 20–30 min. The appearance of the spots was made under an ultraviolet light lamp. The Rf values were the average of 5–6 measurements for each compound and assuming that the compounds will have been rotated to different positions on the plates. The RM values were calculated from the corresponding Rf values according to the equation [67].RM = log [(1/Rf) − 1](1)

SMILES | AAPH% Inhibition, 100 μM (±SD) [1] | RA%, 100 μM, 20 min (±SD) [2] | RA%, 100 μM, 60 min (±SD) [2] | IC50 ([3]; read-out: LOX IC50 (μM) (±SD)) | RM ± SD [4] | inhibition at 100 µM [3]
CN(C)c1ccc(/C=C/C2=NN(c3ccccc3)C(c3ccc(N(C)C)cc3)C2)cc1 (stereo not shown) [Compound 2e] | 78 ± 0.4% | 24 ± 0.9% | 45 ± 1% | 0.35 µM | 0.95 ± 0.092 | –
CN(C)c1ccc(/C=C/C2=NN(c3ccc(C#N)cc3)C(c3ccc(N(C)C)cc3)C2)cc1 (stereo not shown) [Compound 4e, (E)-4-(5-(4-(dimethylamino)phenyl)-3-(4-(dimethylamino)styryl)-4,5-dihydro-1H-pyrazo-1yl)-benzonitrile] | 74 ± 0.9% | 2 ± 0.1% | 2 ± 0.2% | – | 0.49 ± 0.029 | 6 ± 0.5%
CC(=O)N1N=C(/C=C/c2ccc(Br)cc2)CC1c1ccc(Br)cc1 (stereo not shown) [Compound 6c, (E)-5-(4-bromophenyl)-3-(4-bromostyrene)-4,5-dihydro-1-H-pyrazol-1-ethan-1-one] | 71 ± 0.4% | – | – | – | 0.78 ± 0.051 | 1 ± 0.07%
N#Cc1ccc(N2N=C(/C=C/c3ccc(C(F)(F)F)cc3)CC2c2ccc(C(F)(F)F)cc2)cc1 (stereo not shown) [Compound 4f, (E)-4-(5-(4-(trifluoromethyl)phenyl)-3-(4-(trifluoromethyl)styryl)-4,5-dihydro-1H-pyrazol-1-yl)-benzonitrile] | 12 ± 1.1% | – | – | – | 0.8 ± 0.031 | 22 ± 1.8%
N#Cc1ccc(N2N=C(/C=C/c3ccccc3)CC2c2ccccc2)cc1 (stereo not shown) [Compound 4a, (E)-4-(5-phenyl-3-styryl-4,5-dihydro-1H-pyrazo-1-yl)-benzonitrile] | 98 ± 0.4% | – | – | – | −0.31 ± 0.023 | 39 ± 0.4%
Cc1c(C)c2c(c(C)c1O)CCC(C)(C(=O)O)O2 (stereo not shown) [Trolox, 6-Hydroxy-2,5,7,8-tetramethyl-chroman2-carboxylic acid, reference compound] | 92% | – | – | – | – | –
Brc1ccc(/C=C/C2=NN(c3ccccc3)C(c3ccc(Br)cc3)C2)cc1 (stereo not shown) [Compound 2c] | 68 ± 0.6% | 21 ± 0.6% | – | – | 2.1 ± 0.17 | –
NC(=O)N1N=C(/C=C/c2ccc(Br)cc2)CC1c1ccc(Br)cc1 (stereo not shown) [Compound 5c, (E)-5-(4-bromophenyl)-3-(4-bromostyryl)-4,5-dihydro-1H-pyrazole-1-carboxamide] | 85 ± 0.6% | – | – | – | 0.60 ± 0.055 | 37 ± 0.6%
N#Cc1ccc(N2N=C(/C=C/c3ccc(F)cc3)CC2c2ccc(F)cc2)cc1 (stereo not shown) [Compound 4b, (E)-4-(5-(4-fluorophenyl)-3-(4-fluorostyryl)-4,5-dihydro-1H-pyrazo-1-yl)-benzonitrile] | 97 ± 0.6% | 2 ± 0.1% | – | – | 0.61 ± 0.053 | –
NC(=O)N1N=C(/C=C/c2ccccc2)CC1c1ccccc1 (stereo not shown) [Compound 5a, (E)-5-phenyl-3-styryl-4,5-dihydro-1H-pyrazole-1-carboxamide] | 29 ± 2.2% | – | – | – | 0.06 ± 0.005 | 4 ± 0.3%
CC(=O)N1N=C(/C=C/c2ccc(F)cc2)CC1c1ccc(F)cc1 (stereo not shown) [Compound 6b, (E)-5-(4-fluorophenyl)-3-(4-fluorostyryl)-4,5-dihydro-1-H-pyrazol-1-ethan-1-one] | 46 ± 0.6% | – | – | – | 0.24 ± 0.021 | 26 ± 0.3%
CC(Cc1ccc(O)c(O)c1)C(C)Cc1ccc(O)c(O)c1 (stereo not shown) [NDGA, Nordihydroguaretic acid, reference compound] | – | 87% | 93% | – | – | –
